Molecules are shown by their SMILES. Where a SMILES comes first, the peptide text is derived from it.

This passage reports half-life and IC50 results from patent publication US20260217767A1, “NOVEL A4B7 THIOETHER PEPTIDE DIMER ANTAGONISTS” (Protagonist Therapeutics, Inc., priority 2014, published 2026).

Series [1] in a line: Simulated Intestinal Fluid (SIF) Stability Assay. Format: in vitro ADME. As to conditions: pig, 37° C., monomers, Table 6; for half-life at 22 μM: simulated intestinal fluid (SIF) with 1% porcine pancreatin, pH 6.5, porcine pancreatin; for half-life: porcine pancreatin. The essentials: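 Peptide at 22 μM final was incubated at 37° C in blank FaSSIF pH 6.5 with 1% porcine pancreatin. Timed samples were quenched in acetonitrile/methanol/formic acid with internal standard and analysed by LC-MS/MS. Half-lives came from first-order exponential fits of percent remaining.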

A further series addresses T1, rh integrin α4β7 (Homo sapiens, UniProt P13612+P26010).
T1 construct: purchased R&D Systems 5397-A30
T1 sequence (P13612 34-977 limits assumed): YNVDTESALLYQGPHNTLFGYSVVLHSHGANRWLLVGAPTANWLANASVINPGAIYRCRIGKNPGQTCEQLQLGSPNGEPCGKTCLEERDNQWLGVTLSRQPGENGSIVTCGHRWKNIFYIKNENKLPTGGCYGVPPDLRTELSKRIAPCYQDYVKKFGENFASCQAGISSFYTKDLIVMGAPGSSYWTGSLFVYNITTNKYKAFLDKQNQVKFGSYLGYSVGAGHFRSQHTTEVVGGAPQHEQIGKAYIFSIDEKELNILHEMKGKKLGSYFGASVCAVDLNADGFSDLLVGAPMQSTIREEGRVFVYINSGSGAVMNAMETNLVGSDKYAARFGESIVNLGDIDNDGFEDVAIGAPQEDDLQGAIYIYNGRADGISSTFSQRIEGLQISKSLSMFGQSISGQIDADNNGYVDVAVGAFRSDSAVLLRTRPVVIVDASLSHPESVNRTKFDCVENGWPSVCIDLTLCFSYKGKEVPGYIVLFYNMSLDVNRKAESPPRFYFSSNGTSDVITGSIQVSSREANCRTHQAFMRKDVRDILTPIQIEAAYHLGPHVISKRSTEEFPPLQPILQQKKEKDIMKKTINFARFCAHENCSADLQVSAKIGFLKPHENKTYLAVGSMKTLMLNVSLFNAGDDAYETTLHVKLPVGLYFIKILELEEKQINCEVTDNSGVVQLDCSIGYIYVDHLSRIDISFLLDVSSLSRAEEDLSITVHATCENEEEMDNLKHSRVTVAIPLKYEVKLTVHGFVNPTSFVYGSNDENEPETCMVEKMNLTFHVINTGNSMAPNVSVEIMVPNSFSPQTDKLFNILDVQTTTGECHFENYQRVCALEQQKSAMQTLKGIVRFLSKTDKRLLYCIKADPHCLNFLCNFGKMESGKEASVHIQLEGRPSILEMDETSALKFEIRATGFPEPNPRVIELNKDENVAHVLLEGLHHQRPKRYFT
T1 sequence (P26010 20-723 limits assumed): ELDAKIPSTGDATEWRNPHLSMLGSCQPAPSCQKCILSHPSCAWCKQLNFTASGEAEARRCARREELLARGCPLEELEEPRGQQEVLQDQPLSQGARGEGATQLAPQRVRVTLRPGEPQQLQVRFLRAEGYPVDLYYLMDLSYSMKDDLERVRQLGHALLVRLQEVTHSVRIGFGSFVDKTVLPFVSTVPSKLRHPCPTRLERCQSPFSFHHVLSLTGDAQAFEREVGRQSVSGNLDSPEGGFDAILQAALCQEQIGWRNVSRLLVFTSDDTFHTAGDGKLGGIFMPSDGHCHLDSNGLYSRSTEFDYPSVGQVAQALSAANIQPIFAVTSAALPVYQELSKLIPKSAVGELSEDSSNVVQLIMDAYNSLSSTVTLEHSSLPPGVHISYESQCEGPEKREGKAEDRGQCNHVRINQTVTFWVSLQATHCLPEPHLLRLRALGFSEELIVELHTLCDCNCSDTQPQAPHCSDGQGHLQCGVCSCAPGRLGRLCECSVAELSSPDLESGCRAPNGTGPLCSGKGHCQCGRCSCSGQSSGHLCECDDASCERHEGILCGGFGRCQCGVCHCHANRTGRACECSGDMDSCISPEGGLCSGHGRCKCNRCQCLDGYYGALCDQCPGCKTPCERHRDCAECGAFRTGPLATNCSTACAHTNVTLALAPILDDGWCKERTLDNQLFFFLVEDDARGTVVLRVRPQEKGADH
Nature of the series: α4β7-MAdCAM Competition ELISA. Type of series: binding. Particulars: thioether monomer peptides, Table 6; read-out: ELISA A4B7. Here is the method: α4β7-MAdCAM Competition ELISA A nickel coated plate (Pierce #15442) was coated with rh integrin α4β[…] Systems #5397-A30) at 800 ng/well and incubated at room temperature with shaking for 1 hr. The solution was then removed by shaking and blocked with assay buffer (50 mM Tris-HCl pH7.6, 150 mM NaCl, 1 mM MnCl2 or MgCl2, 0.05% Tween-20 and 0.5% BSA) at 250 ul/well. The plate was then incubated at room temperature for 1 hr. Each well was washed 3 times with wash buffer (50 mM Tris-HCl pH7.6, 100 mM NaCl, 1 mM MnCl2 or MgCl2, 0.05% Tween-20). To each well was added 25 ul of a serial dilution (3-fold dilutions in assay buffer) of peptides starting at 20 μM. 25 ul of recombinant human MAdCAM-1 (R&D Systems #6056-MC) was then added to each well at a fixed concentration 20 nM. The final starting peptide concentration was 10 μM, and the final MAdCAM-1 concentration was 10 nM. The plates were then incubated at room temperature for 1 hr to reach binding equilibrium. The wells were then washed three times with wash buffer. 50 ul of mouse anti-human IgG1-HRP (Invitrogen #A10648) diluted in 1:2000 in assay buffer was then added to each well. The wells were incubated at room temperature for 45 min with shaking. The wells were then washed 3 times with wash buffer. 100 ul of TMB were then added to each well and closely observe during development time. The reaction was stopped with 2N H2SO4 and absorbance was read at 450 nm.

In series [1], `CC(C)C[C@@H]1NC(=O)[C@H]([C@@H](C)O)NC(=O)[C@H](CC(=O)O)NC(=O)[C@H](CO)NC(=O)[C@H](CCCNC(=N)N)N(C)C(=O)C(C)SC[C@@H](C(=O)N[C@@H](Cc2c[nH]c3ccccc23)C(=O)N[C@H](CCCCN)C(N)=O)NC1=O` (single isomer, unassigned) [compound 51] returned a half-life at 22 μM of 0.1 h. Besides, the IC50 at rh integrin α4β7 lay within 25 to 100 nM. Regarding `CC(C)C[C@@H]1NC(=O)[C@H]([C@@H](C)O)NC(=O)[C@H](CC(=O)O)NC(=O)[C@H](CO)NC(=O)[C@H](CCCNC(=N)N)N(C)C(=O)CSC(C)(C)[C@@H](C(=O)N[C@@H](Cc2c[nH]c3ccccc23)C(=O)N[C@H](CCCCN)C(N)=O)NC1=O` [compound 53], the half-life at 22 μM in series [1] is more than 3 h. Moreover, the IC50 on rh integrin α4β7 lay in the range of 100 to 1000 nM. As to `CC(C)C[C@@H]1NC(=O)[C@H]([C@@H](C)O)NC(=O)[C@H](CC(=O)O)NC(=O)[C@H](CO)NC(=O)[C@H](CCCNC(=N)N)N(C)C(=O)CCSCC[C@@H](C(=O)N[C@@H](Cc2c[nH]c3ccccc23)C(=O)N[C@H](CCCCN)C(N)=O)NC1=O` [compound 57], the half-life in series [1] was less than 0.333 h. Further, at rh integrin α4β7, the IC50 is 100 to 1000 nM. For the molecule `CC(C)C[C@@H]1NC(=O)[C@H]([C@@H](C)O)NC(=O)[C@H](CC(=O)O)NC(=O)[C@H](CO)NC(=O)[C@H](CCCNC(=N)N)NC(=O)c2ccccc2CSC[C@@H](C(=O)N[C@@H](Cc2c[nH]c3ccccc23)C(=O)N[C@H](CCCCN)C(N)=O)NC1=O` [compound 59], in series [1], the half-life at 22 μM was less than 0.333 h. For the same molecule, the IC50 at rh integrin α4β7 was 100 to 1000 nM.

In turn, `CC(C)C[C@@H]1NC(=O)[C@H]([C@@H](C)O)NC(=O)[C@H](CC(=O)O)NC(=O)[C@H](CO)NC(=O)[C@H](CCCNC(=N)N)N(C)C(=O)c2ccccc2CSC(C)(C)[C@@H](C(=O)N[C@@H](Cc2c[nH]c3ccccc23)C(=O)N[C@@H](CCC(=O)O)CC(=O)N[C@H](CCCCN)C(N)=O)NC1=O` [compound 61] (HELM PEPTIDE1{[meR].S.D.T.L.[Pen].W.[O=C(O)CC[C@@H](CC(=O)[*:2])N[*:1]].[dK].[am]}|CHEM1{[O=C(c1ccccc1C[*:2])[*:1]]}$PEPTIDE1,CHEM1,1:R1-1:R1|PEPTIDE1,CHEM1,6:R3-1:R2$$$V2.0) showed a half-life at 22 μM in series [1] of more than 3 h. For the same molecule, on rh integrin α4β7, the IC50 is less than 25 nM. The matching figures for `CC(C)C[C@@H]1NC(=O)[C@H]([C@@H](C)O)NC(=O)[C@H](CC(=O)O)NC(=O)[C@H](CO)NC(=O)[C@H](CCCNC(=N)N)N(C)C(=O)c2ccccc2CSC(C)(C)[C@@H](C(=O)N[C@@H](Cc2c[nH]c3ccccc23)C(=O)N[C@@H](CCC(=O)O)C(=O)N(C)[C@H](CCCCN)C(N)=O)NC1=O` [compound 62] (HELM PEPTIDE1{[meR].S.D.T.L.[Pen].W.E.[CN([C@H](CCCCN)C(=O)[*:2])[*:1]].[am]}|CHEM1{[O=C(c1ccccc1C[*:2])[*:1]]}$PEPTIDE1,CHEM1,1:R1-1:R1|PEPTIDE1,CHEM1,6:R3-1:R2$$$V2.0): more than 3 h and less than 25 nM. Consider `CC(C)C[C@@H]1NC(=O)[C@H]([C@@H](C)O)NC(=O)[C@H](CC(=O)O)NC(=O)[C@H](CO)NC(=O)[C@H](CCCNC(=N)N)N(C)C(=O)c2ccccc2CSC[C@H](C(=O)N[C@@H](Cc2c[nH]c3ccccc23)C(=O)N[C@@H](CCC(=O)O)CC(=O)N[C@H](CCCCN)C(N)=O)NC1=O` [compound 66] (HELM PEPTIDE1{[meR].S.D.T.L.[dC].W.[O=C(O)CC[C@@H](CC(=O)[*:2])N[*:1]].[dK].[am]}|CHEM1{[O=C(c1ccccc1C[*:2])[*:1]]}$PEPTIDE1,CHEM1,1:R1-1:R1|PEPTIDE1,CHEM1,6:R3-1:R2$$$V2.0), for which the half-life in series [1] is more than 3 h. Also, at rh integrin α4β7, the IC50 lay in the range of 25 to 100 nM. Consider `CC(C)C[C@@H]1NC(=O)[C@H]([C@@H](C)O)NC(=O)[C@H](CC(=O)O)NC(=O)[C@H](CO)NC(=O)[C@H](CCCNC(=N)N)N(C)C(=O)c2ccccc2CSCC[C@@H](C(=O)N[C@@H](Cc2c[nH]c3ccccc23)C(=O)N[C@@H](CCC(=O)O)C(=O)N[C@H](CCCCN)C(N)=O)NC1=O` [compound 67] (HELM PEPTIDE1{[meR].S.D.T.L.[O=C([C@H](CCS[*:3])N[*:1])[*:2]].W.E.[dK].[am]}|CHEM1{[O=C(c1ccccc1C[*:2])[*:1]]}$PEPTIDE1,CHEM1,1:R1-1:R1|PEPTIDE1,CHEM1,6:R3-1:R2$$$V2.0), for which the half-life in series [1] is less than 0.333 h. Besides, the IC50 at rh integrin α4β7 was less than 25 nM. `CC(C)C[C@@H]1NC(=O)[C@H]([C@@H](C)O)NC(=O)[C@H](CC(=O)O)NC(=O)[C@H](CO)NC(=O)[C@H](CCCNC(=N)N)N(C)C(=O)c2ccccc2CSC(C)(C)[C@@H](C(=O)N[C@@H](Cc2cccc3ccccc23)C(=O)N[C@H](CCC(=O)O)C(=O)N[C@H](CCCCN)C(N)=O)NC1=O` [compound 68] (HELM PEPTIDE1{[meR].S.D.T.L.[Pen].[O=C([C@H](Cc1cccc2ccccc12)N[*:1])[*:2]].[dE].[dK].[am]}|CHEM1{[O=C(c1ccccc1C[*:2])[*:1]]}$PEPTIDE1,CHEM1,1:R1-1:R1|PEPTIDE1,CHEM1,6:R3-1:R2$$$V2.0) yielded a half-life at 22 μM in series [1] of more than 3 h. At rh integrin α4β7, the IC50 is less than 25 nM.

As for `CC(C)C[C@@H]1NC(=O)[C@H]([C@@H](C)O)NC(=O)[C@H](CC(=O)O)NC(=O)[C@H](CO)NC(=O)[C@H](CCCNC(=N)N)N(C)C(=O)c2ccccc2CSC(C)(C)[C@@H](C(=O)N[C@@H](Cc2c[nH]c3ccccc23)C(=O)N[C@H](CCC(=O)O)C(=O)N[C@H](Cc2c[nH]cn2)C(N)=O)NC1=O` [compound 109] (HELM PEPTIDE1{[meR].S.D.T.L.[Pen].W.[dE].[dH].[am]}|CHEM1{[O=C(c1ccccc1C[*:2])[*:1]]}$PEPTIDE1,CHEM1,1:R1-1:R1|PEPTIDE1,CHEM1,6:R3-1:R2$$$V2.0), at rh integrin α4β7, the IC50 is less than 25 nM.

Regarding `COC(=O)CC[C@H](NC(=O)[C@H](Cc1c[nH]c2ccccc12)NC(=O)[C@H]1NC(=O)[C@H](CC(C)C)NC(=O)[C@H]([C@@H](C)O)NC(=O)[C@H](CC(=O)O)NC(=O)[C@H](CO)NC(=O)[C@H](CCCNC(=N)N)N(C)C(=O)c2ccccc2CSC1(C)C)C(=O)N[C@H](CCCCN)C(N)=O` [compound 115] (HELM PEPTIDE1{[meR].S.D.T.L.[Pen].W.E.[dK].[am]}|CHEM1{[CO[*:1]]}|CHEM2{[O=C(c1ccccc1C[*:2])[*:1]]}$PEPTIDE1,CHEM1,8:R3-1:R1|PEPTIDE1,CHEM2,1:R1-1:R1|PEPTIDE1,CHEM2,6:R3-1:R2$$$V2.0), the IC50 at rh integrin α4β7 is less than 25 nM.

As a reminder, the half-life is the time needed for the level to fall by half in the phase considered. A high value points to slow decline.
